Results as given in patent US20070049588A1, “ATM INHIBITOR” (priority 2005, published 2007).
Like-named read-outs stand apart in the source and are kept apart here.

What was measured:
[1] = Maximum single tolerable intravenous dose in rats; settings: both sexes, rat, in vivo, highest dose without clinical signs in 4 animals, read-out: Rat MTD (i.v.)
Description: (§1) The maximum single tolerable intravenous dose which could be administered to rats and mice was determined. Escalating doses of each compound were given to discrete, naive pairs of animals (1 male and 1 female) until a dose that elicited clinical signs, was reached. Then for each compound, two further animals were then treated with the highest dose that had not produced any clinical signs. […]

[2] = Oral bioavailability in mice; assay type: in vivo; settings: mouse, plasma, 10 mg/kg oral vs intravenous, AUC ratio
Description: In order to assess the oral bioavailability of compounds (Ia)-(IV), the compounds were dissolved to 5 mg/ml in an aqueous formulation which was then dosed orally and intravenously at 10 mg/kg to discrete groups of mice. For the intravenously dosed animals, blood samples were taken (three mice per time point) at 3, 5, 15, 30, 60, 120, 240 and 360 minutes post-dose. For the orally dosed animals, blood samples were taken (three mice per time point) at 5, 15, 30, 60, 120, 240 and 360 minutes post-dose. The plasma concentration of each compound at all time points, for both dose routes, was determined by HPLC-MS/MS analysis. The details of the HPLC-MS/MS method are as follows.
Sample was extracted for analysis by homogenisation of tissue, if required, vortex mixing and then centrifugation to produce a compound-containing supernatant that can be assayed by HPLC-MS/MS. Quantitation was achieved by comparison to a serial dilution of a known amount of parent compound. The chromatographic and MS conditions used are given below.
MS conditions were determined by infusing compound dissolved in 50:50 acetonitrile:formic acid (0.01%).
Total exposure as indicated by area under the curve (AUC) was calculated. By definition, intravenous delivery results in 100% bioavailability and the comparative bioavailability obtained through oral delivery is calculated by: [formula]

[3] = Maximum single tolerable intravenous dose in mice; settings: both sexes, mouse, in vivo, highest dose without clinical signs in 4 animals, read-out: Mouse MTD (i.v.)
Description: as §1

[4] = Tissue pharmacokinetics, plasma and tumour concentrations; assay type: in vivo; settings: mouse, ip, mice, 50 mg/kg i.p., mean; for concentration at 1 h: 1 hr post-dose; for concentration at 4 h: 4 hr post-dose
Description: In order to assess tissue pharmacokinetics, a single intraperitoneal (i.p.) dose of 50 mg/kg of each compound was administered to discrete groups of mice. Blood and tumour samples were taken (three mice per time point) at 1 and 4 hours post-dose. The concentration of each compound in both matrices at both time points was determined by HPLC-MS/MS analysis using the method described above for Example 6. The mean concentrations found are presented below.

HIV = assay: HIV-based LUCIA assay, repression of retroviral infection; assay type: cell-based; settings: Human immunodeficiency virus 1
Description: The ability of compound (Ia) to repress retroviral infections was assessed using an HIV-based LUCIA assay. The LUCIA assay was carried out as described in WO 03/070726 (see pages 125-126 therein), which is incorporated herein by reference.

[5] = Clonogenic survival assays with chemotherapeutics; assay type: cell-based; settings: in vitro clonogenic survival assays
[6] = plasma, read-out: Plasma concentration
[7] = tumour, read-out: Tumour concentration

CN1CCN(CCC(=O)Nc2ccc3c(c2)Cc2cccc(-c4cc(=O)cc(N5CCOCC5)o4)c2S3)CC1 [Compound (II)]
MTD [1]: 40 mg/kg
bioavailability [2]: 0%
MTD [3]: < 40 mg/kg
concentration at 1 h [4, 6]: 3030 ng/mL
concentration at 4 h [4, 6]: 137 ng/mL
concentration at 1 h [4, 7]: 2810 ng/g
concentration at 4 h [4, 7]: 1060 ng/g

CN1CCN(CCC(=O)Nc2ccc3c(c2)Sc2cccc(-c4cc(=O)cc(N5CCOCC5)o4)c2S3)CC1 [Compound (III)]
MTD [1]: 75 mg/kg
bioavailability [2]: 0%
MTD [3]: < 40 mg/kg
concentration at 1 h [4, 6]: 2030 ng/mL
concentration at 4 h [4, 6]: 626 ng/mL
concentration at 1 h [4, 7]: 1730 ng/g
concentration at 4 h [4, 7]: 2190 ng/g

CC(C)N1CCN(CCC(=O)Nc2ccc3c(c2)Sc2cccc(-c4cc(=O)cc(N5CCOCC5)o4)c2S3)CC1 [Compound (IV)]
bioavailability [2]: 0%
MTD [3]: < 40 mg/kg
concentration at 1 h [4, 6]: 1920 ng/mL
concentration at 4 h [4, 6]: 383 ng/mL
concentration at 1 h [4, 7]: 899 ng/g
concentration at 4 h [4, 7]: 1090 ng/g

C[C@@H]1CN(CC(=O)Nc2ccc3c(c2)Cc2cccc(-c4cc(=O)cc(N5CCOCC5)o4)c2S3)C[C@H](C)O1 [Compound (Ia), 2-((2R,6S)-2,6-Dimethyl-morpholin-4-yl)-N-[5-(6-morpholin-4-yl-4-oxo-4H-pyran-2-yl)-9H-thioxanthen-2-yl]-acetamide]
IC50 (HIV): 1.3 µM
MTD [1]: > 100 mg/kg
bioavailability [2]: 37%
Potentiation of cytotoxic effects of etoposide, camptothecin and doxorubicin [5]: potentiate the cytotoxic effects
MTD [3]: 75 mg/kg
concentration at 1 h [4, 6]: 31800 ng/mL
concentration at 4 h [4, 6]: 5960 ng/mL
concentration at 1 h [4, 7]: 19700 ng/g
concentration at 4 h [4, 7]: 4140 ng/g
